Assay results taken from paper PMC8153904 (ACS Omega, 2021).
pEC50: −log10 of the molar value. “Also recorded” adds a separate entry of the source.

How the values were obtained:
[1] = test system: CHIKV-NanoLuc; assay: Antiviral activity assay, CHIKV-NanoLuc at low MOI in BHK-21 cells; format: cell-based, Chikungunya virus; settings: for viral infection at 100 μM / concentration at which the inhibitory effect appeared: mixtures of four stereoisomers; for concentration at which the inhibitory effect appeared: tested at 1 up to 100 μM; for pEC50: Chikungunya virus, BHK-21, 16 h
[2] = Cytotoxicity assay; format: cell-based, hamster; settings: hamster, BHK-21 cells, CC50, BHK-21 cells, 24 h, MTT
[3] = test system: BHK-21 cells; assay: Cytotoxicity assay; format: cell-based, hamster; settings: for cytotoxic effect over the tested concentrations: concentrations of 1 up to 100 μM, mixtures of four stereoisomers

| Compound | pEC50 [1] | CC50 at 24 h [2] [µM] | concentration at which cytotoxicity appeared [3] | further results |
| --- | --- | --- | --- | --- |
| Cc1cc(C)cc([C@@H]2C[C@H]2C(=O)NC(C(=O)NC(C)(C)C)c2ccc(C)c(C)c2)c1 (stereo partly drawn) [D161] | 4.86 | > 100 | – | viral infection at 100 μM ([1]; BHK-21 cells): almost completely inhibited; concentration at which the inhibitory effect appeared ([1]; BHK-21 cells): 10 µM; cytotoxicity effect at 100 μM ([3]; 100 μM, mixture of four stereoisomers): moderate cytotoxicity effect; also recorded: moderate cytotoxic effect |
| Cc1cc(C)cc([C@@H]2C[C@H]2C(=O)NC(C(=O)NCc2ccccc2)c2ccc(C)c(C)c2)c1 (stereo partly drawn) [D160] | 4.98 | > 100 | – | viral infection at 100 μM ([1]; BHK-21 cells): almost completely inhibited; concentration at which the inhibitory effect appeared ([1]; BHK-21 cells): 10 µM; cytotoxic effect over the tested concentrations [3]: no cytotoxic effect |
| Cc1cc(F)cc([C@@H]2C[C@H]2C(=O)NC(C(N)=O)c2ccc(C)c(C(F)(F)F)c2)c1 (stereo partly drawn) [D127] | 4.53 | > 100 | more than 100 μM | – |
| Cc1cc(C)cc([C@@H]2C[C@H]2C(=O)NC(C(N)=O)c2ccc(C)c(C(F)(F)F)c2)c1 (stereo partly drawn) [D119] | 4.49 | > 100 | – | – |
| Cc1cc(C)cc([C@@H]2C[C@H]2C(=O)NC(C(=O)NC2CCCC2)c2ccc(C)c(C)c2)c1 (stereo partly drawn) [D164] | 4.30 | > 100 | – | – |
| Cc1cc(C)cc([C@@H]2C[C@H]2C(=O)NC(C(=O)NC2CC2)c2ccc(C)c(C)c2)c1 (stereo partly drawn) [D163] | – | – | more than 10 μM | antiviral activity at the maximum nontoxic concentration ([1]; BHK-21 cells, CHIKV-NanoLuc): no antiviral activity |
| COc1ccc(CNC(=O)C(NC(=O)[C@@H]2C[C@H]2c2cc(C)cc(F)c2)c2ccc(C)c(C(F)(F)F)c2)c(OC)c1 (stereo partly drawn) [D166] | – | > 100 | – | antiviral (anti-CHIKV) activity, in words ([1]; BHK-21 cells, CHIKV-NanoLuc, low MOI): complete loss of the activity |
| Cc1cc(C)cc([C@@H]2C[C@H]2C(=O)NC(C(N)=O)c2ccc(C)c(C)c2)c1 (stereo partly drawn) [D27] | – | < 0.1 | 100 nM | cytotoxic effect over the tested concentrations [3]: toxic at all concentrations |
